A value given as a limit tells only on which side of the number the result lay.

One data set deals with Carbonic anhydrase 9 (Homo sapiens, UniProt Q16790). The data set is described as follows: Inhibition of human carbonic anhydrase 9 catalytic site preincubated for 15 mins by stopped flow CO2 hydration assay.
For the next data set, the target named is Carbonic anhydrase 1 (Homo sapiens, UniProt P00915).
The target in another data set is Carbonic anhydrase 2 (Homo sapiens, UniProt P00918).
The test system of data set [1] is HT-29. The data set is described as follows: Antiproliferative activity against human HT-29 cells assessed as reduction in cell viability after 72 hrs by cell counter method. To be noted: HT-29, 72 h. The format is cell-based.
Data set [2] is described as follows: Toxicity in nude mouse xenografted with human HT-29 cells assessed as weight loss at 25 to 50 mg/kg, ip administered qd measured after 16 days. Conditions: in vivo, 384 h. It counts as organism-based.
Data set [3] is described as follows: Toxicity in nude mouse xenografted with human HT-29 cells assessed as clinical toxicity at 25 to 50 mg/kg, ip administered qd measured after 16 days. It counts as organism-based. Conditions: in vivo, 384 h.
Another data set deals with Carbonic anhydrase 7 (Homo sapiens, UniProt P43166). The data set is described as follows: Inhibition of human carbonic anhydrase 7 preincubated for 15 mins by stopped flow CO2 hydration assay.
Data set [4] deals with HT-29. Kind of data set: Synergistic cytotoxicity in human HT-29 cells assessed as dose reduction index ratio in presence of CoCl2-induced hypoxic conditions measured at 90 % cell growth inhibition after 72 hrs in presence of compound-5c by cell counter method. It counts as functional.
For data set [5], the system named is HT-29. Kind of data set: Synergistic cytotoxicity in human HT-29 cells assessed as dose reduction index ratio in presence of CoCl2-induced hypoxic conditions measured at 80 % cell growth inhibition after 72 hrs in presence of compound-5c by cell counter method. The format is functional.
The test system of data set [6] is HT-29. The data set is described as follows: Synergistic cytotoxicity in human HT-29 cells assessed as dose reduction index ratio in presence of CoCl2-induced hypoxic conditions measured at 70 % cell growth inhibition after 72 hrs in presence of compound-5c by cell counter method. It counts as functional.

Chain of Carbonic anhydrase 1 (P00915 whole entry): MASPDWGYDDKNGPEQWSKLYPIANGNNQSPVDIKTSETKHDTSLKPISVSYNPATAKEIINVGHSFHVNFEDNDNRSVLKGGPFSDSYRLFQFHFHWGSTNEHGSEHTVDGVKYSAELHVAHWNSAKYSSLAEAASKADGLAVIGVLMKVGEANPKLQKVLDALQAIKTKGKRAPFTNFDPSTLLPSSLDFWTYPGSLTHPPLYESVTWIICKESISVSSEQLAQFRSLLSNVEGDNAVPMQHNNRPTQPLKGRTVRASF
Chain of Carbonic anhydrase 7 (P43166 whole entry): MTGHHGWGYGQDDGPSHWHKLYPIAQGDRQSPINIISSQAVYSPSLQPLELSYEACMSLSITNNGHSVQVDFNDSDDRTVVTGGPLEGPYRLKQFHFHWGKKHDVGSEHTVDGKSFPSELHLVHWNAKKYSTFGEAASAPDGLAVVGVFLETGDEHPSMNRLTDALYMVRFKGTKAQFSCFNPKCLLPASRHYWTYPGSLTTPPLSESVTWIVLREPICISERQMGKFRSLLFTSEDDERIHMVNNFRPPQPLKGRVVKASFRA
Description for Carbonic anhydrase 1: Inhibition of human carbonic anhydrase 1 preincubated for 15 mins by stopped flow CO2 hydration assay
Description for Carbonic anhydrase 2: Inhibition of human carbonic anhydrase 2 preincubated for 15 mins by stopped flow CO2 hydration assay

For the compound `O=C(Nc1ccc2c(c1)C(=O)NS2(=O)=O)c1ccc(Cl)cc1`, the inhibition constant (Ki) – broadly, the dissociation constant of the complex between target and ligand, obtained from inhibition or displacement – was 86.2 nM on Carbonic anhydrase 9, more than 50 µM on Carbonic anhydrase 1 and 2300 nM at Carbonic anhydrase 2.
As for `O=C(Nc1ccc2c(c1)S(=O)(=O)NC2=O)c1ccc(Cl)cc1`, the Ki on Carbonic anhydrase 9 is 1920 nM; on Carbonic anhydrase 1, more than 50 µM; at Carbonic anhydrase 2 it was 4670 nM.
As for `O=C(Nc1ccc2c(c1)C(=O)NS2(=O)=O)c1cccc(Br)c1`, the inhibition constant (Ki) on Carbonic anhydrase 9 worked out at 31.5 nM; at Carbonic anhydrase 2, 3930 nM.
Turning to `O=C(Nc1ccc2c(c1)C(=O)NS2(=O)=O)c1cccc(Cl)c1`, the figures for the inhibition constant Ki on Carbonic anhydrase 9 and at Carbonic anhydrase 2 were 67.9 nM and 589 nM, respectively. For the same compound, the 50% inhibitory concentration (IC50) (in general, the concentration at which inhibition is half-maximal) in the data set with HT-29 [1] is more than 100 µM. Besides, the Activity result in data set [2] and in data set [3] was “Non-Toxic” each time.
Take `O=C(Nc1ccc2c(c1)S(=O)(=O)NC2=O)c1cccc(Cl)c1`: the inhibition constant (Ki) on Carbonic anhydrase 9 is 233 nM; on Carbonic anhydrase 1 it was more than 50 µM; at Carbonic anhydrase 2 it was 6020 nM.
Regarding `COc1ccc(C(=O)Nc2ccc3c(c2)S(=O)(=O)NC3=O)cc1`, the Ki at Carbonic anhydrase 9 was 205 nM; on Carbonic anhydrase 1 it was more than 50 µM; at Carbonic anhydrase 2 it was 6940 nM.
Turning to `Cc1ccc(C(=O)Nc2ccc3c(c2)S(=O)(=O)NC3=O)cc1`, the inhibitory constant (Ki) on Carbonic anhydrase 9 is 539 nM; at Carbonic anhydrase 1 it was more than 50 µM; at Carbonic anhydrase 2, 411 nM.
On the same counts, the results for `O=C(Nc1ccc2c(c1)C(=O)NS2(=O)=O)c1ccc(-c2ccccc2)cc1` are 231 nM, more than 50 µM and 82.9 nM.
Turning to `CC(=O)Nc1ccc2c(c1)C(=O)NS2(=O)=O`, the figures for the Ki on Carbonic anhydrase 7, at Carbonic anhydrase 9 and on Carbonic anhydrase 2 were more than 50 µM, 30.4 nM and 1480 nM, respectively. Besides, the IC50 with HT-29 [1] was more than 100 µM.
On the same counts, the results for `O=C(Nc1cccc2c1C(=O)NS2(=O)=O)c1cccc(Br)c1` are more than 50 µM, 31.2 nM, 593 nM and more than 100 µM.
`O=C(Nc1ccc2c(c1)S(=O)(=O)NC2=O)c1ccccc1`: the Ki was 220 nM at Carbonic anhydrase 9, more than 50 µM at Carbonic anhydrase 1 and 7270 nM on Carbonic anhydrase 2.
On the same counts, the results for `O=C(Nc1ccc2c(c1)S(=O)(=O)NC2=O)c1cccc(Br)c1` are 665 nM, more than 50 µM and 837 nM.
On the same counts, the results for `O=C(Nc1ccc2c(c1)S(=O)(=O)NC2=O)c1ccc(F)cc1` are 543 nM, more than 50 µM and 908 nM.
On to `CCc1c2c(nc3ccc(O)cc13)-c1cc3c(c(=O)n1C2)COC(=O)[C@]3(O)CC` [7-ETHYL-10-HYDROXYCAMPTOTHECIN], for which the Ratio is on record as 7.395 in the data set on HT-29 [4], 2.039 in the data set on HT-29 [5] and 0.866 in the data set with HT-29 [6].
Consider `O=C(Nc1ccc2c(c1)C(=O)NS2(=O)=O)c1ccc(F)cc1`, for which the Ki at Carbonic anhydrase 9 was determined as 27.2 nM; at Carbonic anhydrase 2, 6880 nM.
`O=C(Nc1cccc2c1C(=O)NS2(=O)=O)c1ccccc1`: the values for the inhibition constant Ki at Carbonic anhydrase 9, at Carbonic anhydrase 1 and at Carbonic anhydrase 2 were 223 nM, more than 50 µM and 184 nM, respectively.
In the case of `O=c1[nH]cc(F)c(=O)[nH]1` [FLUOROURACIL], the Ratio was found to be 89.952 with HT-29 [4], 15.884 in the data set on HT-29 [5] and 5.017 in the data set with HT-29 [6].
With `O=C(Nc1cccc2c1C(=O)NS2(=O)=O)c1ccc(-c2ccccc2)cc1`, the Ki on Carbonic anhydrase 9 was 1190 nM; at Carbonic anhydrase 1 it was more than 50 µM; at Carbonic anhydrase 2, 910 nM.
`COc1ccc(C(=O)Nc2ccc3c(c2)C(=O)NS3(=O)=O)cc1`: the figures for the Ki at Carbonic anhydrase 9 and at Carbonic anhydrase 2 were 74 nM and 790 nM, respectively.

The values above are taken from ChEMBL document CHEMBL4425112, “1,2-Benzisothiazole Derivatives Bearing 4-, 5-, or 6-Alkyl/arylcarboxamide Moieties Inhibit Carbonic Anhydrase Isoform IX (CAIX) and Cell Proliferation under Hypoxic Conditions” (J Med Chem, 2016).
